Row | Compound | melting point
1 | Cc1coc2cc(Cl)cc(Cl)c12 | 45 °C
2 | COc1cc(OC)c2c(c1)c(-c1cc3cccnc3[nH]1)cn2C | 220 °C
3 | O=C(O)c1ccc(C(=C2SCCCS2)c2ccccc2)cc1 | 261 to 262 °C
4 | CCOC(=O)C1(CCCCOc2ccc(C(=O)OC)cc2)Cc2c(OC)c(OC)c(OC)c(OC)c2C1=O (stereo not drawn) | 116 to 118 °C
5 | CN(C(=O)Cc1[nH]c(=O)c2ccc(Cl)cc2c1-c1ccccc1)c1cc(C(F)(F)F)cc(C(F)(F)F)c1 | 181 to 182 °C
6 | N#Cc1nc(Cl)c(Cl)nc1C#N | 180 to 182 °C
7 | CC(C)CC(C#N)NC(=O)C(CC(C)C)NC(=O)c1ccc(Cn2ccnc2)cc1 (stereo not drawn) | 100 to 103 °C
8 | CNC(c1ccnc(F)c1)C(O)c1cccc(C(F)(F)F)c1 (stereo not drawn) | 99 to 102 °C
9 | Nc1ccc2ccc(Oc3cccc(Cl)c3)nc2n1 | 166 °C
10 | CSc1cnc(Cl)c(Cl)c1 | 66 to 67 °C
11 | CCOC(=O)C1C(=O)NC(=O)C12C(=O)N(Cc1ccc(Cl)c(Cl)c1)c1ccccc12 (stereo not drawn) | 60 to 85 °C
12 | O=C(O)CCCCCOc1ccc(CCc2ccncc2)cc1 | 180 to 182 °C
13 | CSCc1cc(O)nc(CSC)n1 | 101 to 102 °C
14 | C=COC(=O)[C@H](Cc1ccccc1)NC(C)=O | 90 to 93 °C
15 | COC(=O)CCCC#CCn1c(-c2ccccc2)c(-c2ccccc2)n(-c2ccccc2)c1=O | 133 to 134 °C
16 | N=C(Nc1ccc(C(F)(F)F)cc1)Nc1ncccc1OCc1ccccc1 | 154 to 155 °C
17 | Cn1cc(-c2cc3nccnc3[nH]2)cn1 | 232 to 234 °C
18 | COc1ccc(CN(C)CCCOc2ccc(NC(=O)c3cccc4c(=O)c5cccc(OC)c5[nH]c34)cc2)cc1OC | 180 °C
19 | CC(=O)NC[C@H]1CN(c2ccc(N3CCC(O)(C(N)=O)CC3)c(F)c2)C(=O)O1 | 238 to 240 °C
20 | CN1CCC[C@@H]1Cc1c[nH]c2ccc(C=CC(C)(C)O)cc12 | 155 to 158 °C
21 | CCCCC(CC)Nc1cc(C)nc(Cl)c1[N+](=O)[O-] (stereo not drawn) | 48 to 49 °C
22 | Nc1c(-c2nc(-c3ccco3)n[nH]2)cnn1CCc1ccccc1 | 175 to 176 °C
23 | Nc1cc(S(=O)c2ccc(-c3ccccc3)cc2)ccc1Cl (stereo not drawn) | 134 to 137 °C

Row | Compound | melting point
24 | O=S1NC(Cc2csc3ccccc23)=NO1 (stereo not drawn) | 134 to 136 °C
25 | Clc1cccc(C2=NOCCS2)c1 | 65 °C
26 | O=C(Nc1cc(C(F)(F)F)cc(C(F)(F)F)c1)c1cnc(Cl)nc1Cl | 104 to 105 °C
27 | Fc1ccccc1NC(=S)N1CCN(c2cnccn2)CC1 | 151 to 153 °C
28 | CC(C)(SC(=S)c1ccccc1)c1ccc(Cl)cc1 | 77 to 78 °C
29 | O=C(O)c1ccc(-c2nc(-c3cccc(Oc4ccccc4)c3)no2)cc1 | 292 to 293 °C
30 | CC(CCc1ccc(F)cc1)(Cn1ccnc1)Sc1cc(Cl)ccc1Cl (stereo not drawn) | 148 °C
31 | CC(C)CNC(=O)C(C)NC(=O)C(C)NC(=O)C(C)NC(=O)CCC(=O)O (stereo not drawn) | 283 to 286 °C
32 | Cn1cnc(Cc2cccc(CO)c2O)c1 | 139 to 144 °C
33 | Oc1cnccc1CCCOc1cccnc1Nc1cccc(Br)c1 | 138 to 141 °C
34 | CC(C)(C)c1ccc(O)c(CO)c1 | 65 to 85 °C
35 | O=C1CCCCCCCCCCCCCCCCCCCCCC(O)C(=O)OCCCC1 (stereo not drawn) | 67 to 68 °C
36 | O=C1Nc2cccc(I)c2/C1=C/c1ccc[nH]1 | 256 to 258 °C
37 | NCCc1c[nH]c2ccc(-c3ccc(F)cc3)cc12 | > 250 °C
38 | ClCc1nc2ccccc2c2ccnn12 | 135 to 136 °C
39 | CCN1CC(=O)N(c2cc(Oc3ncccc3C(F)(F)F)c(Cl)cc2F)C1=O | 162 to 163 °C
40 | NC(=O)CNC(=O)COc1ccccc1 | 138 to 140 °C
41 | CC12CCC(=O)C=C1CCC1C2=CCC2(C)C(=O)CCC12 (stereo not drawn) | 196 to 202 °C
42 | CC(=O)Nc1ccc(Cl)c2c1CN(C)C2 | 147 to 150 °C
43 | N#Cc1ccc(-c2ccc(C#N)cc2-c2nc3ccccc3[nH]2)c(-c2nc3ccccc3[nH]2)c1 | 347 to 349 °C
44 | Cc1ccc2c(c1)[nH]c(=O)n2CCCN1CCC2(CC1)C(=O)NCN2c1ccccc1 | 256 °C
45 | Cc1cc(-c2nc3cccnn3c2-c2ccnc(NC(=O)c3ccc(OC(F)(F)F)cc3)c2)ccc1F | 225 to 226 °C

More lines, now with the values ahead:

Row | melting point | Compound
46 | 88 to 90 °C | CC(C)(C)CNc1nc(C(=O)C(=O)c2ccccc2)ccc1[N+](=O)[O-]
47 | 143 to 146 °C | Cc1nc(-n2cc(C(O)c3ccccc3)nn2)sc1C(=O)NCc1ccccc1 (stereo not drawn)
48 | 172 to 173 °C | CCCCc1nc2c([nH]c(=O)c3ccccc32)s1
49 | 100 to 105 °C | COC(=O)C(OC)c1ccc2oc(-c3ccc(Cl)cc3)nc2c1 (stereo not drawn)
50 | 86 to 88 °C | COC1(c2cccc(Sc3ccc(C(C)=NO)cc3)c2)CCN(CC(F)(F)F)C1 (stereo not drawn)
51 | 141 °C | O=C(O)CCCc1cc2nc(Cl)ccc2n1S(=O)(=O)c1ccc(-c2cccnc2)cc1
52 | 58 to 60 °C | CN(C)CCc1c(CSc2ccccc2)c2ccccc2n1C
53 | 163 to 165 °C | COc1ccc2c(c1)COc1ccc(CC(=O)O)cc1C2=O
54 | 115 to 118 °C | COc1ccc2cnoc2c1Cl
55 | 177 to 179 °C | CS(=O)(=O)Nc1nc(CN2CCN(C(c3ccccc3)c3ccccc3)CC2)cs1
56 | 146 to 147 °C | C=CCOc1ccccc1S(=O)(=O)NC(=O)Nc1nc(C)nc(OC)n1
57 | 270 to 272 °C | CC(C)(O)Cn1cnc2c(N)nc3ccccc3c21
58 | 237 °C | COc1ccc2c(c1)c(-c1[nH]c3ncccc3c1C)cn2C
59 | 96 to 97 °C | CCc1c(Oc2ccc([N+](=O)[O-])cc2C(F)(F)F)nn(C(=O)NC)c1C
60 | 176 °C | OC1(CNc2nc3ccccc3s2)CCN(CC2COc3ccccc3O2)CC1 (stereo not drawn)
61 | 163 to 166 °C | COc1ccc(-c2cc(C)cn2-c2ccc(S(N)(=O)=O)cc2)cc1
62 | 143 to 144 °C | CN(C)S(=O)(=O)n1cc(S(=O)(=O)N2CCc3ccccc3C2)nc1C#N
63 | 105 to 110 °C | O=C(CSc1ccc(Cl)c(Cl)c1)C12CC3CC(CC(C3)C1)C2
64 | 193 to 195 °C | CC(=O)c1ccc2c(c1)ncn2-c1cccc(N2CCN(C(C)=NO)CC2)c1
65 | 55 to 56 °C | CCOC(CBr)(OCC)c1ccc(OC)cc1

Row | melting point | Compound
66 | 163 to 168 °C | COc1ccc(-c2cc(=Nc3c(C)cc(C)cc3C)n(C)c(C)n2)cc1OC
67 | 113 °C | COc1c(NOCc2ccc(C(C)(C)C)cc2)ccnc1C
68 | 134 °C | COc1ccc2ccc3c(c2c1)C=C(C#N)CO3
69 | > 275 °C | Cc1ccc(-n2c(-c3sc(NC(=O)c4ccccc4)nc3-c3ccccc3)nc3ccccc3c2=O)cc1
70 | 240 to 244 °C | C=CCc1cc(C2=NNC(=O)CC2)ccc1O
71 | 60 to 65 °C | CC(C)(C)[Si](C)(C)N1C(=O)CC1C(=O)NC(Cc1c[nH]c2ccccc12)C(=O)OCc1ccccc1 (stereo not drawn)
72 | 279 to 280 °C | CC(C)Sc1cc2c(cc1Cl)N=C(C(N)=O)NS2(=O)=O
73 | 66 to 69 °C | COc1cc(OC)nc(NC(=O)NS(=O)(=O)Nc2ccccc2C(O)C2CC2)n1 (stereo not drawn)
74 | 179 to 180 °C | COCCNS(=O)(=O)c1cccc(Nc2nccc(-c3sc(N)nc3C)n2)c1
75 | 275 to 278 °C | CC1(C)CCC(C)(C)c2cc3c(cc21)CCc1nc(-c2ccc(C(=O)O)cc2)sc1-3
76 | 205 to 206 °C | CCOC(=O)C1=C(C)NN=C(C(=O)OC)C1c1ccc([N+](=O)[O-])cc1 (stereo not drawn)
77 | 90 to 91 °C | COCc1nnc(-c2ccc3occ(-c4cccc(OC(F)(F)F)c4)c3c2)o1
78 | 149 to 152 °C | Cn1nc(N)c2c(-c3ccccc3)cc(N3CCOCC3)nc21
79 | 116 to 118 °C | CCOC(=O)C1C(OC)C(=O)N1c1ccc(OC)cc1 (stereo not drawn)
80 | 177 to 179 °C | CCCc1nc2c(N)nc(C)c(C)c2n1NC1CCCCC1
81 | 80 °C | CCCc1c(O)cccc1Oc1ccccc1C(=O)OC
82 | 92 to 94 °C | CCCS(=O)c1cc(OCCCS(=O)Cc2ccccc2)ccc1C (stereo not drawn)
83 | 177 to 178 °C | CCOC(=O)c1[nH]c(CC)nc1C(C)C
84 | 149 °C | C=CCCOc1ccc2c(c1)C(=O)c1cc3ccccc3cc1C2=O
85 | 136 °C | CCOC(=O)C(=CNCC1CCCO1)C(=O)c1ccc(Br)cc1Cl (stereo not drawn)

Row | melting point | Compound
86 | 90 to 92 °C | O=C(Nc1ccc(OCCN2CCOCC2)c2ccccc12)c1cccc(N2CCOCC2)c1
87 | 230 to 232 °C | CC(=O)Nc1cnc(-c2cc(Cl)cc(Cl)c2Cl)c(NC(=O)C(C)C)n1
88 | 113 to 119 °C | CC(C)(C)OC(=O)C[C@@H](CC1CCCC1)C(=O)N1C(=O)OC[C@@H]1Cc1ccccc1
89 | 291 to 292 °C | O=S1(=O)N=C(NC2CCCC2)Nc2cc(Cl)sc21
90 | 111 to 113 °C | CCn1ncc2c(Cl)c3c(nc21)CCc1ccccc1C3=O
91 | 180 °C | COc1cccc2cc(C(=O)c3ccc(Cl)c(N)c3)oc12
92 | 132 to 136 °C | CCOC(=O)c1csc(NCc2ccccc2)n1
93 | 207 °C | COCCN1CCN(c2ccc(NC(=O)c3cnn(-c4ccc(Cl)cc4)c3C)cc2C#N)CC1
94 | 198 to 199 °C | CCOc1ccccc1-c1nc2c(OC)cccc2c(=O)[nH]1
95 | 70 to 71 °C | COc1ccc(-c2cc(COCCc3cccc(NS(=O)(=O)C(F)(F)F)c3)ccc2F)cc1
96 | 133 to 134 °C | Nc1cc(CO)cc(S(N)(=O)=O)c1Oc1cccc(C(F)(F)F)c1
97 | 82 to 83 °C | Cc1ccc(S(=O)(=O)OCC2CCc3sc(C(C)C)nc3C2)cc1 (stereo not drawn)
98 | 103 to 106 °C | Nc1ccc(C2CCSCC2)cc1
99 | 108 °C | Cc1cc(-n2ccnc2)c2cccc(OCc3c(Cl)ccc(S(=O)(=O)N4CCC[C@H]4C(=O)N4CCN(Cc5ccncc5)CC4)c3Cl)c2n1
100 | 254 to 256 °C | O=c1[nH]c2cc(Cl)ccc2c(=O)n1S(=O)(=O)c1cc(Cl)ccc1Cl
101 | 176 to 178 °C | COCCN(C)Cc1ncc(C(=O)Nc2nc3c(OC)ccc(N4CCOCC4)c3s2)n1C
102 | 184 to 186 °C | CON1CCC2(CC1)NC(=O)C(c1c(C)cc(C)cc1C)=C2OCc1ccccc1
103 | 121 to 123 °C | CCCCOc1ccc(NC(=O)c2cnc(C(=O)OC)c(Cl)c2)cc1

Source: a melting point compilation (Tetko et al.; mined from patent text by program, amines drawn as free bases though some values may be those of a salt)
